Patent US7884204B2, “Phenylalanine derivatives” (Ajinomoto Co., Inc., priority 2001, dated 2011)

Key:
integrin α4β1 = target: T1, integrin α4β1 (Homo sapiens, UniProt P05556+P13612); assay: VCAM antagonist activity (VCAM-1/α4β1 binding assay), Jurkat cells binding to VCAM-1; format: cell-based; conditions: Jurkat cells binding to recombinant human VCAM-1, 30 minutes at room temperature; read-out: VCAM antagonistic activity IC50, α4β1
T1 construct: cell strain Jurkat (ATCC TIB-152) of human T cells, known to express integrin α4β1; endogenous in cells; host or cells: Jurkat (ATCC TIB-152), human T cells
T1 sequence (P05556 21-798, one chain of several): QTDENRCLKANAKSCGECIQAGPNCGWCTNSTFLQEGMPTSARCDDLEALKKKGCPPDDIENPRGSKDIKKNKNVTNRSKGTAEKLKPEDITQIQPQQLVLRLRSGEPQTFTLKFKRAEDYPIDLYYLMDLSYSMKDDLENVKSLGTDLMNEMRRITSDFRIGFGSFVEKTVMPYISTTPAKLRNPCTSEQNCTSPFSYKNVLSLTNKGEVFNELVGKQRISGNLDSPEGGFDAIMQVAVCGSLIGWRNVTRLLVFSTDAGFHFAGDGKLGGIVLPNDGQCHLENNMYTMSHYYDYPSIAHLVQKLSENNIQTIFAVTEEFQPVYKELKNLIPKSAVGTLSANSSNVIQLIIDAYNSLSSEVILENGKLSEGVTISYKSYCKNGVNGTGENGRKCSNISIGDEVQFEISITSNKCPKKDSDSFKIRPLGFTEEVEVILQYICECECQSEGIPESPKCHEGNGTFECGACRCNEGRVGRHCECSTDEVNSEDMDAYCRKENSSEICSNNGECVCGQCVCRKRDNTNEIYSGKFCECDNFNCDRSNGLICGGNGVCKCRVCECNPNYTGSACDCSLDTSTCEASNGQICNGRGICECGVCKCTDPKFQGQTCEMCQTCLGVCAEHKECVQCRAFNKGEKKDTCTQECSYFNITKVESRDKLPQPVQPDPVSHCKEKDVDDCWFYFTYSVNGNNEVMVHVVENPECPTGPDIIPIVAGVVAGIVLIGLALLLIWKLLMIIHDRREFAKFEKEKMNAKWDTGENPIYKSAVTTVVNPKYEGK
Description: VCAM Antagonist Activity (VCAM-1/α4β1 Binding Assay)
The capacity of a test substance antagonistic to the binding of cell strain Jurkat (ATCC TIB-152) of human T cells, known to express integrin α4β1, to VCAM-1 was determined.
(§1) 100 μl/well of a solution (500 ng/ml) of recombinant human VCAM-1 (R & D systems) solution diluted with buffer A (0.1 M NaHCO3, pH 9.6) was added to a micro titer plate having 96 wells (Nunc Maxisorp). After the incubation at 4° C. overnight, unbound VCAM-1 was removed by washing once with PBS. After completion of the washing, a buffer (buffer B) obtained by diluting Block Ace (Dainippon Pharmaceutical Co., Ltd.) with PBS to ¼ concentration was added in an amount of 150 μl/well. After the incubation at room temperature for 1 hour, buffer B was removed and the plate was washed with PBS once.
Jurkat cells were washed with Dulbecco modified Eagle medium (SIGMA, hereinafter referred to as “DMEM”) twice and then incubated in DMEM containing 10 μg/ml of Calcein-AM (Wako Pure Chemical Industries, Ltd.) at 37° C. in dark place for 30 minutes to label with fluorescence. The cells were again suspended in a binding buffer (20 mM HEPES, DMEM containing 0.1% BSA).
(§2) 50 μl of a test substance of various concentrations obtained by the dilution with the binding buffer was added to the plate. Immediately thereafter, 50 μl (final volume: 100 μl/well) of the fluorescent Jurkat cells (4×10^6 cells/ml) were added thereto, and they were incubated at room temperature for 30 minutes. After the shaking on a plate shaker (IKA MTS-4) at 800 rpm for 30 seconds, the solution was immediately removed to remove the unbound cells. The fluorescence quantity of the bound cells remaining in the wells was determined with a fluorescent plate reader (Wallac 1420 ARVO multi-label counter) (filter excitation wave length: 485 nm, emission wave length: 535 nm). The fluorescent strength thus obtained is proportional to the number of Jurkat cells bound to VCAM-1 and remaining on the plate. The binding rate of each test material in various concentrations was determined while the fluorescent strength of the test material-free well was determined to be 100%. The concentration IC50 for the 50% binding inhibition was calculated.

integrin α4β7 = target: T2, integrin α4β7 (Homo sapiens, UniProt P13612+P26010); assay: VCAM antagonistic activity (VCAM-1/α4β7 binding assay), RPMI-8866 cells binding to VCAM-1; format: cell-based; conditions: RPMI-8866 cells binding to recombinant human VCAM-1, binding buffer containing 4 mM MnCl2, 30 minutes at room temperature
T2 construct: lymphoma cell strain RPMI-8866 of human B cells, known to express integrin α4β7; endogenous in cells; host or cells: RPMI-8866, human B-cell lymphoma line
T2 sequence (P13612 34-1032): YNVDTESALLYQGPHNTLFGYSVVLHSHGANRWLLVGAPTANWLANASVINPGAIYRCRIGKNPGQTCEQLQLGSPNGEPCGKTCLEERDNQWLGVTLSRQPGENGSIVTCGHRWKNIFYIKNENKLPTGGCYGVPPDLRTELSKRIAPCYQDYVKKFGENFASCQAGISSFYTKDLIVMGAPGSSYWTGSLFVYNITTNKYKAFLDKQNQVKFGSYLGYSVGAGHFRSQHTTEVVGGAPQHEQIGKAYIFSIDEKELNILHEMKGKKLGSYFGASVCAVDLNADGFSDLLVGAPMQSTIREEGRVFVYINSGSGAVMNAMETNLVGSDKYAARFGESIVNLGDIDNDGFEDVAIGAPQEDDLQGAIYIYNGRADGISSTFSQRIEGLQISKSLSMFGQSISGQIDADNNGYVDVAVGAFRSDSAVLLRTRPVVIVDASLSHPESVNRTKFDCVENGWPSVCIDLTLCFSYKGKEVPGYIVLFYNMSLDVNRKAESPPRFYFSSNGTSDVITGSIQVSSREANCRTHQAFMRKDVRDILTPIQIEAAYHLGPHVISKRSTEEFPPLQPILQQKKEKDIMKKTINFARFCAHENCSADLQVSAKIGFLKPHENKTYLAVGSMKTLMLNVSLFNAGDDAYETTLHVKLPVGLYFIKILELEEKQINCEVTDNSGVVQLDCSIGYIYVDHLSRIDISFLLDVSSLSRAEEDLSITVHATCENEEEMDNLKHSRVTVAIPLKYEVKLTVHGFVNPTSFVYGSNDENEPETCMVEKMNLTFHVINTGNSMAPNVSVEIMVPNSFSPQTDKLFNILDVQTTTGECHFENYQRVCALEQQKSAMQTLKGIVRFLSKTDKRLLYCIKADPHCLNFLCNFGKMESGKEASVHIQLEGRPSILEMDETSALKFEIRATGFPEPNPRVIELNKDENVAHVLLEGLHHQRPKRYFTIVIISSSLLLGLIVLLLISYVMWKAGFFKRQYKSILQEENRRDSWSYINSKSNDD
T2 sequence (P26010 20-798): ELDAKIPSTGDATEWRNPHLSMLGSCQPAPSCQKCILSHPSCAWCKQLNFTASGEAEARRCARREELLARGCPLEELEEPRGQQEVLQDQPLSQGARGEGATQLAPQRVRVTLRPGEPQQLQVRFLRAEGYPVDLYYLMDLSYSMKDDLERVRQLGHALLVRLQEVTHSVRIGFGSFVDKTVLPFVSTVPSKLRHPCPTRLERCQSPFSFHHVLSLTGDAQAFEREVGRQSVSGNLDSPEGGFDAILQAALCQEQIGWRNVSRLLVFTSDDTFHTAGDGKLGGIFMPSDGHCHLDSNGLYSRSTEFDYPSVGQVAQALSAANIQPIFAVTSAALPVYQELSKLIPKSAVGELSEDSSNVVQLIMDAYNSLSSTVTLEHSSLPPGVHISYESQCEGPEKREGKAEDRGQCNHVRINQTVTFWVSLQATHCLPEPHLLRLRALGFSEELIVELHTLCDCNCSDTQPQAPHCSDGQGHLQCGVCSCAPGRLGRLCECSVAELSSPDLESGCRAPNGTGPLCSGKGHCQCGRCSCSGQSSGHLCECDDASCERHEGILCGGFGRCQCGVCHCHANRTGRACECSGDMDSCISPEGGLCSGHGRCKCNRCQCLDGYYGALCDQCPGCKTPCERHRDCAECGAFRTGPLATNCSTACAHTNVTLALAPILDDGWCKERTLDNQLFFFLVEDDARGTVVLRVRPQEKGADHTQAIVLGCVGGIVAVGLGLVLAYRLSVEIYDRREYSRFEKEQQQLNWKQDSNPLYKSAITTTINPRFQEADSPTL
Description: VCAM Antagonistic Activity (VCAM-1/α4β7 Binding Assay)
The capacity of a test substance antagonistic to the binding of lymphoma cell strain RPMI-8866 of human B cells, known to express integrin α4β7, to VCAM-1 was determined.
as §1
RPMI-8866 cells were incubated in Dulbecco modified Eagle medium containing 10 μg/ml of Calcein-AM (Wako Pure Chemical Industries, Ltd.) (SIGMA, hereinafter referred to as “DMEM”) at 37° C. for 30 minutes to label with fluorescence. The cells were again suspended in a binding buffer (20 mM HEPES, DMEM containing 0.1% BSA) containing 4 mM of MnCl2.
as §2, with “RPMI-8866” for “Jurkat”

| IC50 (integrin α4β1) [nM] | IC50 (integrin α4β7) [nM] | Structure (SMILES) |
| --- | --- | --- |
| 64 | 3.9 | Cn1c(=O)c(-c2ccc(C[C@H](NC(=O)c3c(Cl)cccc3Cl)C(=O)O)cc2)cc2cc(S(C)(=O)=O)ccc21 [Example 30] |
| 150 | 3.3 | Cn1c(=O)c(-c2ccc(C[C@H](NC(=O)c3c(Cl)cccc3Cl)C(=O)O)cc2)cc2cc([N+](C)(C)C)ccc21 [Example 14] |
| 168 | 11 | COc1c(-c2ccc(C[C@H](NC(=O)c3c(Cl)cccc3Cl)C(=O)O)cc2)c(=O)n(C)c2ccc(Cl)cc12 [Example 44] |
| 47 | 3 | Cn1c(=O)c(-c2ccc(C[C@H](NC(=O)c3c(Cl)cc(NS(C)(=O)=O)cc3Cl)C(=O)O)cc2)cc2ccccc21 [Example 31] |
| 52 | 4.1 | Cc1c(-c2ccc(C[C@H](NC(=O)c3c(Cl)cccc3Cl)C(=O)O)cc2)c(=O)n(C)c2ccccc12 [Example 42] |
| 255 | 21 | Cn1c(=O)c(-c2ccc(C[C@H](NC(=O)c3c(Cl)cccc3Cl)C(=O)O)cc2)cc2cc(O)ccc21 [Example 33] |
| 178 | 10 | CCn1c(=O)c(-c2ccc(C[C@H](NC(=O)c3c(Cl)cccc3Cl)C(=O)O)cc2)c(C)c2ccccc21 [Example 43] |
| – | 67 | CC1CN(c2ccc(C[C@H](NC(=O)c3c(Cl)cccc3Cl)C(=O)O)cc2)C(=O)c2ccccc21 (some centres unmarked) [Example 46] |
| 74 | 4.5 | CCOc1c(-c2ccc(C[C@H](NC(=O)c3c(Cl)cccc3Cl)C(=O)O)cc2)c(=O)n(C)c2ccccc12 [Example 41] |
| 115 | 6.5 | CCCOc1c(-c2ccc(C[C@H](NC(=O)c3c(Cl)cccc3Cl)C(=O)O)cc2)c(=O)n(C)c2ccccc12 [Example 40] |
| 320 | 18 | CCC(CC)(C(=O)N[C@@H](Cc1ccc(-c2cc3ccccc3n(C)c2=O)cc1)C(=O)O)C(=O)N1CCCC1 [Example 8, (2S)-2-[[2-ethyl-2-(1-pyrrolidinecarbonyl)butanoyl]amino]-3-[4-(1-methyl-2-oxo-1,2-dihydro-3-quinolinyl)phenyl]propionic acid] |
| 44 | 3.5 | COc1c(-c2ccc(C[C@H](NC(=O)c3c(Cl)cccc3Cl)C(=O)O)cc2)c(=O)n(C)c2ccccc12 [Example 6, (2S)-2-[(2,6-dichlorobenzoyl)amino]-3-[4-(4-methoxy-1-methyl-2-oxo-1,2-dihydro-3-quinolinyl)phenyl]propionic acid] |
| – | 150 | O=C(N[C@@H](Cc1ccc(N2C(=O)c3cccc(=O)n3C2=O)cc1)C(=O)O)c1c(Cl)cccc1Cl [Example 22] |
| 290 | 11 | Cn1c(=O)c(-c2ccc(C[C@H](NC(=O)c3c(Cl)ccnc3Cl)C(=O)O)cc2)cc2ccccc21 [Example 19] |
| – | 35 | Cc1cn(-c2ccc(C[C@H](NC(=O)c3c(Cl)cccc3Cl)C(=O)O)cc2)c(=O)c2ccccc12 [Example 23] |
| – | 44 | CCC(CC)(C(=O)N[C@@H](Cc1ccc(N2C(=O)c3cccc(C)c3C2=O)cc1)C(=O)O)C(=O)N1CCCC1 [Example 26] |
| 37 | 7.3 | CCCc1c(-c2ccc(C[C@H](NC(=O)c3c(Cl)cccc3Cl)C(=O)O)cc2)c(=O)n(C)c2ccccc12 [Example 45] |
| 620 | 90 | Cn1c(=O)c(-c2ccc(C[C@H](NC(=O)c3c(Cl)cccc3Cl)C(=O)O)cc2)cc2ccccc21 [Example 1, (2S)-2-[(2,6-dichlorobenzoyl)amino]-3-[4-(1-methyl-2-oxo-1,2-dihydro-3-quinolinyl)phenyl]propionic acid] |
| – | 97 | O=C(N[C@@H](Cc1ccc(N2Cc3ccccc3CC2=O)cc1)C(=O)O)c1c(Cl)cccc1Cl [Example 47] |
| 190 | 2.4 | O=C(N[C@@H](Cc1ccc(-n2ncc3ccccc3c2=O)cc1)C(=O)O)c1c(Cl)cccc1Cl [Example 21] |
